From ChEMBL document CHEMBL3826939, “Discovery of Piperazinylquinoline Derivatives as Novel Respiratory Syncytial Virus Fusion Inhibitors” (ACS Med Chem Lett, 2016)
Activity calls are given as the source filed them. No cut-off for these calls is given here.

What was measured:
[1] = Antiviral activity against Respiratory syncytial virus long A infected in human Hep2 cells assessed as reduction in virus-induced cytopathic effect measured after 6 days by CCK8 assay; format: functional, cell-based, Respiratory syncytial virus type A; details: HEp-2, 144 h
[2] = Cytotoxicity against human Hep2 cells measured after 6 days by CCK8 assay; format: cell-based, HEp-2
[3] = Intrinsic clearance in rat liver microsomes; format: ADME; details: read-out: CLH
[4] = tested on: Respiratory syncytial virus; assay: Inhibition of Respiratory syncytial virus long A fusion protein expressed in human Flp-In T-REx-293 cells assessed as inhibition of cell-cell fusion at 0.1 to 100 nM measured after 3 days by microscopic analysis; format: cell-based
[5] = Solubility of the compound by LYSA; format: physicochemical
[6] = Intrinsic clearance in human liver microsomes; format: ADME; details: read-out: CLH
[7] = Half life in Wistar rat at […], iv by LC-MS/MS analysis; format: ADME, organism-based; details: in vivo
[8] = Clearance in Wistar rat at […], iv by LC-MS/MS analysis; format: ADME, organism-based; details: in vivo
[9] = tested on: Respiratory syncytial virus; assay: Antiviral activity against Respiratory syncytial virus long A infected in human Hep2 cells assessed as inhibition of viral replication measured after 3 days by plaque reduction assay; format: functional, organism-based; details: HEp-2, 72 h
[10] = Oral availability in Wistar rat at […] by LC-MS/MS analysis; format: ADME, organism-based; details: in vivo
[11] = Volume of distribution at steady state in Wistar rat at […], iv by LC-MS/MS analysis; format: ADME, organism-based; details: in vivo, read-out: Vdss
[12] = Permeability of the compound by PAMPA assay; format: ADME; details: read-out: permeability
[13] = tested on: Respiratory syncytial virus; assay: Inhibition of Respiratory syncytial virus long A fusion protein expressed in expressed in human Flp-In T-REx-293 cells assessed as inhibition of cell-cell fusion at 1 to 100 nM measured after 3 days by microscopic analysis; format: cell-based

Structure (SMILES)	EC50 [1] [µM]	CC50 at 144 h [2] [µM]	further results
CCC(C(=O)N1CCN(c2cc(NCCN)c3ccccc3n2)CC1)c1ccccc1 (stereo unspecified)	0.556	> 100	–
CC(C)(C(=O)N1CCN(c2cc(NCCO)c3ccccc3n2)CC1)c1ccccc1	0.322	> 100	–
NCCNc1cc(N2CCN(C(=O)CCc3ccccc3)CC2)nc2ccccc12	0.464	> 100	–
CC(C)(C(=O)N1CCN(c2cc(NCCN)c3cc(Cl)ccc3n2)CC1)c1ccccc1	0.099	20.8	–
NCCNc1cc(N2CCN(S(=O)(=O)c3ccccc3)CC2)nc2ccccc12	1.17	20.5	–
NCCNc1cc(N2CCN(C(=O)Cc3ccccc3Cl)CC2)nc2ccccc12	0.077	> 100	–
NCCNc1cc(N2CCN(C(=O)C3(c4ccccc4)CCC3)CC2)nc2ccccc12	0.086	> 100	–
NCCNc1cc(N2CCN(C(=O)Cc3cccc(F)c3)CC2)nc2ccccc12	0.08	> 100	–
CS(=O)(=O)N1CCN(c2cc(NCCN)c3ccccc3n2)CC1	2.27	> 100	–
CCC(CC)(C(=O)N1CCN(c2cc(NCCN)c3ccccc3n2)CC1)c1ccccc1	0.624	> 100	–
CC(C)(C(=O)N1CCN(c2cc(NCCN)c3ccc(Cl)cc3n2)CC1)c1ccccc1	2.19	20.9	–
CC(=O)NCCNc1cc(N2CCN(C(=O)C(C)(C)c3ccccc3)CC2)nc2ccccc12	15.6	> 100	–
COc1ccc(CC(=O)N2CCN(c3cc(NCCN)c4ccccc4n3)CC2)cc1	0.679	> 100	–
NCCNc1cc(N2CCN(C(=O)C3CCCCC3)CC2)nc2ccccc12	9.24	> 100	–
CN(C)CCNc1cc(N2CCN(C(=O)C(C)(C)c3ccccc3)CC2)nc2ccccc12	0.929	55.2	–
NCCNc1cc(N2CCN(C(=O)Cc3ccc(F)cc3)CC2)nc2ccccc12	0.095	> 100	–
NCCNc1cc(N2CCN(C(=O)C3(c4ccccc4)CC3)CC2)nc2ccccc12	0.017	> 100	–
N#Cc1cccc(CC(=O)N2CCN(c3cc(NCCN)c4ccccc4n3)CC2)c1	0.225	> 100	–
NCCNc1cc(N2CCN(C(=O)C3(c4ccccc4)CCCC3)CC2)nc2ccccc12	3.82	> 100	–
CC(C)CC(=O)N1CCN(c2cc(NCCN)c3ccccc3n2)CC1	1.88	> 100	–
NCCNc1cc(N2CCN(C(=O)Cc3ccc(Cl)cc3)CC2)nc2ccccc12	0.058	> 100	–
Cc1ccc(CC(=O)N2CCN(c3cc(NCCN)c4ccccc4n3)CC2)cc1	0.142	> 100	–
Cc1ccccc1CC(=O)N1CCN(c2cc(NCCN)c3ccccc3n2)CC1	0.029	> 100	–

Structure (SMILES)	EC50 [1] [µM]	CC50 at 144 h [2] [µM]	further results
NCCNc1cc(N2CCN(C(=O)c3ccccc3)CC2)nc2ccccc12	0.57	> 100	–
CC(=O)N1CCN(c2cc(NCCN)c3ccccc3n2)CC1	0.317	> 100	–
CC(C)(C(=O)N1CCN(c2cc(NCCN)c3ccccc3n2)CC1)c1ccccc1	0.028	> 100	CLint scaled [3]: 16.6 mL/min/kg; inhibition [4]: Active; solubility [5]: > 400 µg/mL; CLint scaled [6]: 8.4 mL/min/kg; half-life [7]: 3 h; clearance [8]: 222 mL/min/kg; EC50 [9]: < 0.1 µM; bioavailability [10]: 57%; Vd [11]: 36.9 L/kg; Papp [12]: 0.74 ×10⁻⁶ cm/s
NCCNc1cc(N2CCN(c3ccccc3)CC2)nc2ccccc12	0.865	20.8	–
NCCNc1cc(N2CCN(C(=O)Cc3cccc(Cl)c3)CC2)nc2ccccc12	0.066	> 100	–
NCCNc1cc(N2CCN(C(=O)Cc3ccc(F)c(F)c3)CC2)nc2ccccc12	0.255	> 100	–
NCCNc1cc(N2CCN(C(=O)Cc3ccccc3)CC2)nc2ccccc12	0.079	> 100	–
NCCNc1cc(N2CCN(C(=O)Cc3cc(F)cc(F)c3)CC2)nc2ccccc12	0.264	> 100	–
NCCNc1cc(N2CCN(c3cccc(Cl)c3)CC2)nc2ccccc12	0.977	6.4	–
NCC(O)CNc1cc(N2CCC(c3ccccc3)CC2)nc2ccccc12 (stereo unspecified)	0.759	20.8	–
COc1ccccc1CC(=O)N1CCN(c2cc(NCCN)c3ccccc3n2)CC1	0.056	> 100	–
NCCNc1cc(N2CCN(C(=O)Cc3ccc(Cl)c(Cl)c3)CC2)nc2ccccc12	0.22	6.68	–
NCCNc1cc(N2CCN(C(=O)Cc3ccccc3F)CC2)nc2ccccc12	0.089	> 100	–
Cc1cccc(CC(=O)N2CCN(c3cc(NCCN)c4ccccc4n3)CC2)c1	0.059	> 100	–
CCC(=O)N1CCN(c2cc(NCCN)c3ccccc3n2)CC1	3.09	> 100	–
NCCNc1cc(N2CCN(c3ccccc3Cl)CC2)nc2ccccc12	2.01	20.8	–
COc1cccc(CC(=O)N2CCN(c3cc(NCCN)c4ccccc4n3)CC2)c1	0.098	> 100	–
CC(C)(C(=O)N1CCN(c2cc(NCCN)c3c(Cl)cccc3n2)CC1)c1ccccc1	7.96	20.8	–
CC(C)C(=O)N1CCN(c2cc(NCCN)c3ccccc3n2)CC1	0.847	> 100	–
CC(C(=O)N1CCN(c2cc(NCCN)c3ccccc3n2)CC1)c1ccccc1 (stereo unspecified)	0.091	> 100	–
CNCCNc1cc(N2CCN(C(=O)C(C)(C)c3ccccc3)CC2)nc2ccccc12	0.033	> 100	CLint scaled [3]: 18 mL/min/kg; solubility [5]: > 400 µg/mL; CLint scaled [6]: 5.7 mL/min/kg; half-life [7]: 7.3 h; clearance [8]: 143 mL/min/kg; bioavailability [10]: 41%; Vd [11]: 67.9 L/kg; inhibition [13]: Active; Papp [12]: 1.37 ×10⁻⁶ cm/s
NCCNc1cc(N2CCN(c3ccc(Cl)cc3)CC2)nc2ccccc12	> 100	6.6	–
NCCNc1cc(N2CCN(C(=O)Cc3cccc(C(F)(F)F)c3)CC2)nc2ccccc12	0.563	> 100	–
